Where two headings read alike, the source gives them in different places. Blank lines part the entries; values can stand above or below the compound they belong to.
How the values were obtained:
[1] = system: Diabrotica balteata (Corn Root Worm); test: Insecticidal action against Diabrotica balteata; type: in vivo; settings: 96 h, read-out: effect in at least one of the two categories (mortality or growth inhibition); for percent effect (mortality or growth inhibition) at 200 ppm: application rate of 200 ppm, maize sprouts, L2 larvae, 4 days after infestation
Experimental: Example B2: Insecticidal Action Against Diabrotica balteata (Corn Root Worm)
Maize sprouts placed onto an agar layer in 24-well microtiter plates were treated with aqueous test solutions prepared from 10′000 ppm DMSO stock solutions by spraying. After drying, the plates were infested with L2 larvae (6 to 10 per well). The samples were assessed for mortality and growth inhibition in comparison to untreated samples 4 days after infestation.

[2] = system: Plutella xylostella (Diamond Back Moth); test: Insecticidal action against Plutella xylostella; type: in vivo; settings: 120 h, read-out: effect in at least one of the two categories (mortality or growth inhibition); for percent effect (mortality or growth inhibition) at 200 ppm: application rate of 200 ppm, artificial diet, L2 larvae, 5 days after infestation
Experimental: Example B7: Insecticidal Action Against Plutella xylostella (Diamond Back Moth)
24-well microtiter plates with artificial diet were treated with aqueous test solutions prepared from 10′000 ppm DMSO stock solutions by pipetting. After drying, the plates were infested with L2 larvae (10 to 15 per well). The samples were assessed for mortality and growth inhibition in comparison to untreated samples 5 days after infestation.

[3] = system: Spodoptera littoralis (Egyptian Cotton Leaf Worm); test: Insecticidal action against Spodoptera littoralis, sprayed cotton leaf discs; type: in vivo; settings: foliar, 72 h, read-out: control (mortality, anti-feeding effect, growth inhibition)
Experimental: Example B8: Insecticidal Action Against Spodoptera littoralis (Egyptian Cotton Leaf Worm)
Cotton leaf discs were placed onto agar in 24-well microtiter plates and sprayed with aqueous test solutions prepared from 10′000 ppm DMSO stock solutions. After drying the leaf discs were infested with five L1 larvae. The samples were assessed for mortality, anti-feeding effect, and growth inhibition in comparison to untreated samples 3 days after infestation. Control of Spodoptera littoralis by a test sample is given when at least one of the categories mortality, anti-feeding effect, and growth inhibition is higher than the untreated sample.

[4] = system: Myzus persicae (Green Peach Aphid); test: Insecticidal action against Myzus persicae: feeding/contact activity; type: in vivo; settings: foliar, 144 h
Experimental: Example B4: Insecticidal Action Against Myzus persicae (Green Peach Aphid): Feeding/Contact Activity
Sunflower leaf discs were placed onto agar in a 24-well microtiter plate and sprayed with aqueous test solutions prepared from 10′000 ppm DMSO stock solutions. After drying, the leaf discs were infested with an aphid population of mixed ages. The samples were assessed for mortality 6 days after infestation.

[5] = system: Euschistus heros (Neotropical Brown Stink Bug); test: Insecticidal action against Euschistus heros; type: in vivo; settings: 120 h, read-out: effect in at least one of the two categories (mortality or growth inhibition); for percent effect (mortality or growth inhibition) at 200 ppm: application rate of 200 ppm, soybean leaves, N2 nymphs, 5 days after infestation
Experimental: Example B3: Insecticidal Action Against Euschistus heros (Neotropical Brown Stink Bug)
Soybean leaves on agar in 24-well microtiter plates were sprayed with aqueous test solutions prepared from 10′000 ppm DMSO stock solutions. After drying the leaves were infested with N2 nymphs. The samples were assessed for mortality and growth inhibition in comparison to untreated samples 5 days after infestation.

[6] = application rate of 200 ppm, cotton leaf discs, L1 larvae, 3 days after infestation

melting point: 194 to 195 °C
SMILES: CCn1c(C(F)(F)F)cc2nc(-c3sc(-c4cccc(F)c4)cc3S(=O)(=O)CC)n(C)c2c1=O

melting point: 180 to 182 °C
SMILES: CCn1c(C(F)(F)F)cc2nc(-c3sc(-c4cc(F)cc(F)c4)cc3S(=O)(=O)CC)n(C)c2c1=O

SMILES: CCSc1cc(-c2ccc(Cl)cc2)sc1-c1nc2cc(C(F)(F)F)n(CC)c(=O)c2n1C [A1, 2-[5-(4-chlorophenyl)-3-ethylsulfanyl-2-thienyl]-5-ethyl-3-methyl-6-(trifluoromethyl)-3aH-imidazo[4,5-c]pyridin-4-one]
percent effect (mortality or growth inhibition) at 200 ppm [1]: ≥ 80%
percent effect (mortality or growth inhibition) at 200 ppm [2]: ≥ 80%

SMILES: CCn1c(C(F)(F)F)cc2nc(-c3sc(-c4ccc(Cl)cc4)cc3S(=O)(=O)CC)n(C)c2c1=O [A2, 2-[5-(4-chlorophenyl)-3-ethylsulfonyl-2-thienyl]-5-ethyl-3-methyl-6-(trifluoromethyl)-3aH-imidazo[4,5-c]pyridin-4-one]
mortality at 200 ppm [3]: ≥ 80%
percent control (mortality or growth inhibition) at 200 ppm [1]: ≥ 80%
mortality at 200 ppm [4]: ≥ 80%
percent control (mortality or growth inhibition) at 200 ppm [2]: ≥ 80%
percent control (mortality or growth inhibition) at 200 ppm ([5]; in Glycine max): ≥ 80%

SMILES: CCS(=O)(=O)c1cc(I)sc1-c1nc2cc(C(F)(F)F)n(C)c(=O)c2n1C [A44, 2-(3-ethylsulfonyl-5-iodo-2-thienyl)-3,5-dimethyl-6-(trifluoromethyl)imidazo[4,5-c]pyridin-4-one]
mortality at 200 ppm [3, 6]: ≥ 80%
percent effect (mortality or growth inhibition) at 200 ppm [1]: ≥ 80%
percent effect (mortality or growth inhibition) at 200 ppm [2]: ≥ 80%
percent effect (mortality or growth inhibition) at 200 ppm [5]: ≥ 80%

SMILES: CCS(=O)(=O)c1sc(-c2ccc(Cl)cc2)nc1-c1nc2cc(C(F)(F)F)n(C)c(=O)c2n1C [A48, 2-[2-(4-chlorophenyl)-5-ethylsulfonyl-thiazol-4-yl]-3,5-dimethyl-6-(trifluoromethyl)imidazo[4,5-c]pyridin-4-one]
mortality at 200 ppm [3, 6]: ≥ 80%
percent effect (mortality or growth inhibition) at 200 ppm [1]: ≥ 80%
percent effect (mortality or growth inhibition) at 200 ppm [2]: ≥ 80%
percent effect (mortality or growth inhibition) at 200 ppm [5]: ≥ 80%
